Source: publication PMC8904451, “Novel chalcone-derived pyrazoles as potential therapeutic agents for the treatment of non-small cell lung cancer” (Scientific Reports, 2022)

Assays:
[1] = system: caspase-3/7 in A-549 cells; assay: Caspase-3/7 activation by flow cytometry, A-549; type: cell-based, human; details: IC90
Protocol: (§1) To explain the type of cell death that cancer cells undergo after treatment with PCH-1, the ability of the compound to activate caspases 3–7 was determined by flow cytometry. […] The most pronounced activation of caspase 3 occurred equally in A-549 and H226 cell lines after 48 h of treatment and was sevenfold greater than that in the vehicle.
(§2) Cells were seeded onto tissue culture plates and allowed to attach for 24 h. Next, the cells were treated with PCH-1 or Etoposide at IC90 concentration for 6, 24, and 48 h. After incubation, the cells were harvested by trypsinization, rinsed twice with PBS, and stained with Annexin V Alexa Fluor™ 488 conjugate (Thermo Fisher, #A13201) for apoptosis assay and with CellEvent™ Caspase-3/7 Green Flow Cytometry Assay Kit (Thermo Fisher, #C10427) for caspase-3/7 activation according to the manufacturer’s protocols. The analysis was performed with Guava EasyCyte 8 cell sorter (Merck Millipore) and FlowJo software v10. Each experiment was repeated independently three times.

[2] = system: tubulin; assay: HTS-tubulin polymerization assay; type: biochemical; details: 120-min kinetic reaction, absorbance 340 nm, vs vehicle
Protocol: To further evaluate whether the tubulin–microtubule system was the target site of PCH-1, in vitro microtubule polymerization assays were performed using the microtubule protein with Paclitaxel and Vincristine as a reference. Paclitaxel and Vincristine are antimitotic drugs that have been commonly used in conventional chemotherapy for decades. In 1979, it was shown that Paclitaxel accelerates the initiation of tubulin fiber polymerization and stabilizes the formed tubulin fibers in vitro, even in the absence of GTP or MAP in the solution[30]. Vincristine, on the other hand, binds to tubulin and inhibits its polymerization.
The assay was performed according to the manufacturer’s instructions. Briefly, compounds were diluted in DMSO to a concentration of 2 mM and then in GTB buffer to a concentration of 50 µM. In the wells of a 96-well plate (UV transparent, half surface wells) previously heated to 37 °C, 10 µl of dilutions of the test compounds were placed in duplicate. The plate was incubated for 2 min at 37 °C, and 100 µl of freshly prepared tubulin solution (4 mg/ml) in GTB-GTP buffer was then added. The plate was immediately placed in a Tecan SPARK 10 M plate reader, and the reaction kinetics were measured with the following settings: absorbance reading: 340 nm, 37 °C, interval: 45 s, number of cycles: 160.

[3] = system: A-549 cells; assay: Cell cycle distribution by flow cytometry, cells synchronized with double-thymidine block; type: cell-based, human; details: synchronized A-549, IC90, prolonged exposure (up to 10 h)
Protocol: (§3) Promising antiproliferative properties of PCH-1 led us to further investigate the effect of this compound on cell cycle distribution. Therefore, cell cycle progression was analyzed by quantifying DNA content using flow cytometry. […] To thoroughly analyze the course of the cycle, A-549 cells were synchronized with a double-thymidine block in the G1 phase and treated with IC90 concentration of PCH-1 for the indicated time. Slight alterations of the division cycle were visible after 2 h of incubation with the compound.
(§4) Cells were seeded onto tissue culture plates and allowed to attach for 24 h. Unsynchronized cells were treated with PCH-1 or Etoposide at IC90 concentration for 24 and 48 h, while synchronized cells were treated with PCH-1 or Etoposide at IC90 concentration for 2, 4, 6, 8, and 10 h. Synchronization of the cells was performed as described previously by Chen et al.[77]. Next, the cells were trypsinized, fixed in ice-cold 75% ethanol, and stored overnight at − 20 °C. After centrifugation, the cells were rinsed with PBS and stained with […] PI (Sigma-Aldrich) and […] RNaseA (Thermo Fisher) in PBS for 30 min at RT. The distribution of the cells in different phases of the cell cycle was determined by flow cytometry (Guava EasyCyte 8 cell sorter, Merck Millipore) and FlowJo software v10. Each experiment was repeated independently three times.

[4] = system: A-549, H226, and H460 cells; assay: Cell cycle distribution by flow cytometry, unsynchronized cells; type: cell-based, human; details: IC90, 24 h, vs control
Protocol: as §3, §4

[5] = system: caspase-3/7 in H226 cells; assay: Caspase-3/7 activation by flow cytometry, H226; type: cell-based, human; details: IC90
Protocol: as §1, §2

[6] = system: A-549 cells; assay: Wound healing migration assay; type: cell-based, human
Protocol: To further confirm the antimigratory potential of PCH-1, the wound healing assay was performed on A-549 cells. […] This effect was retained during the entire exposure time, with the highest difference during 18–24 h compared to that in the control group. Finally, the anti-migratory properties of PCH-1 were studied by co-treatment A-549 cells with TGF-β1.
To analyze cell motility, A-549 cells were seeded onto the Ibidi-silicone insert on a cover glass-bottom 24-well plate for live cell imaging and incubated for 24 h. Subsequently, the inserts were dislodged, the cellular debris was removed by washing with RPMI, and the cells were incubated with different concentrations of PCH-1, and/or 2.5 ng/ml TGF-β1 (Sigma-Aldrich) in an imaging chamber (cellVivo incubation system, Olympus) at 37 °C with 5% CO2. Images were captured every 10 min for 20 or 42 h under × 10 magnification using a fluorescence microscope (IX83 Inverted Microscope, Olympus) connected to an XC50 digital color camera (Olympus). The percentage of wound closure was quantified with ImageJ software.

## COc1ccc(C2CC(c3cc4c(cc3OC)OCO4)=NN2C(C)=O)cc1 (centres unmarked) [PCH-1, 1-[3-(6-methoxy-2H-1,3-benzodioxol-5-yl)-5-(4-methoxyphenyl)-4,5-dihydro-1H-pyrazol-1-yl]ethan-1-one]
[1]; 6 h
  caspase-3/7 activation, increase compared to control, A-549: 2.6 fold
[1]; 48 h
  activation of caspase 3 vs vehicle, A-549: sevenfold
[1]; later exposure
  cells with activated caspase 3/7 vs control, A-549: greater than 5.8 times
[2]
  effect on tubulin polymerization kinetics: remarkably reduced the total mass of tubulin polymer
[3]
  increase in G2/M population as compared to control: 50.12%
[4]
  cell cycle arrest: induced cell cycle arrest in the G2/M phase
[5]; 6 h
  caspase-3/7 activation, increase compared to control, H226: 2.9 fold
[5]; 48 h
  activation of caspase 3 vs vehicle, H226: sevenfold
[5]; later exposure
  cells with activated caspase 3/7 vs control, H226: > 4.7 times
[6]; A-549 + 2.5 ng/ml TGF-β1, 5 µM and 10 µM, 20 h
  TGF-β1-induced cell motility (wound closure): the wound remained opened
[6]; A-549, 10 and 15 µM
  cell migration (wound closure): significantly reduced the migration of the cells
